{"source": "patent US20260345593A1", "about": "“ORAL FORMULATION OF N-PYRIDINYL ACETAMIDE DERIVATIVE FOR TREATING INTERSTITIAL LUNG DISEASE” (AstraZeneca AB, priority 2022, published 2026)", "key": {"[1]": {"system": "mouse bleomycin in vivo pulmonary fibrosis", "conditions": "mouse bleomycin in vivo study (Bunyard 2019); cited from earlier work"}, "porcupine (PORCN)": {"system": "porcupine (PORCN)", "conditions": "statement in words; cited from earlier work"}, "[2]": {"system": "bleomycin-mediated fibrosis in the lungs of rats", "conditions": "cited from earlier work"}, "[3]": {"test": "Example 2, second clinical study: pharmacokinetics, bioavailability, food and rabeprazole effect", "format": "in vivo, human", "conditions": "for bioavailability: human, in vivo, po, 20 mg, 20 mg film-coated tablet, fasted, vs IV infusion", "description": "The study comprises a screening period of maximum 28 days, and five periods during which subjects will participate from Day −1 of Period 1 to 72 hours after the AZD5055 dose in Period 5.\nPeriod 1: On Day 1, the subjects will receive either 5 mg AZD5055 as a 20-minute IV infusion (Treatment A) in an overnight fasted state or AZD5055 20 mg as oral suspension (Treatment B) in an overnight fasted state.\nPeriod 2: On Day 1 (Study Day 4), the subjects will receive 20 mg AZD5055 film-coated tablet (Treatment C) in an overnight fasted state.\nPeriod 3: On Day 1 (Study Day 8) the subjects will receive a standardized high-fat breakfast 30 minutes before 20 mg AZD5055 administered as film-coated tablet (Treatment D).\nPeriod 4: On Study Day 10, three days prior to Day 1, 20 mg rabeprazole will be administered twice daily. On Day 1 (Study Day 13), 20 mg AZD5055 film-coated tablet will be administered together with rabeprazole and rabeprazole dosing will continue twice daily (Treatment E).\nPeriod 5: On Day 1 (Study Day 17) the participants will receive a low-fat breakfast 30 minutes before 20 mg AZD5055 film-coated tablet administered together with 20 mg rabeprazole.\nRabeprazole will continue twice daily, the last dose is on the evening of Study Day 18 (Treatment F).\nThere will be a minimum washout of 3 days between the AZD5055 dose administration in Period 1 and Period 2 and a minimum washout of 4 days between AZD5055 doses administrations for subsequent study periods. Repeated PK (pharmacokinetic) sampling will be performed pre-dose to 48 hours after dosing of AZD5055 of each period. Subjects will be discharged on Study Day 20 (Day 4 of Period 5), after all the samples have been collected and all the assessments have been performed.\nRabeprazole is administered as oral doses of 20 mg BID in the morning and evening. Pre-treatment with rabeprazole for 3 days is required to reach the PD (pharmacodynamic) steady state of pH elevation prior to administration of AZD5055.\nA high-fat, high-calorie breakfast constitutes the following: 2 eggs fried in butter; 2 strips of bacon; 2 slices of toast with butter; 112 g/4 oz of hash-brown potatoes; 240 mL/8 oz of whole milk.\nA low-fat, low-calorie breakfast constitutes the following: 1 boiled egg; 1 packet flavoured instant oatmeal made with water; 240 mL/8 oz milk (1% fat).\nPharmacokinetic Parameters—Pharmacokinetic parameters of AZD5055 included, but were not limited to, Cmax, AUCinf, and AUClast.\nApproximately 18 healthy participants were enrolled to ensure that at least 15 participants completed the 5-period study. It was expected that the proposed sample size would give adequate information on the effect of formulation and concomitant treatment on the exposure of AZD5055, while exposing as few participants as possible to study procedures. Interpretation of the results were based on the estimated geometric mean ratio (GMR) and the associated 90% confidence interval (CI) between the combination of test and reference for AUC and Cmax.\nPlasma concentrations were listed for each participant at each actual sampling time and summarized by treatment and nominal sampling time, using the same descriptive statistics as for the PK parameters. Graphical presentations included individual and geometric mean time-concentration curves (actual sampling time for individual curves and nominal sampling time for mean curves) on linear and semi-logarithmic scale. Pharmacokinetic variables and diagnostics of the PK analysis were listed, and PK variables were summarized by treatment using descriptive statistics (n, geometric mean, geometric coefficient of variation [gCV; %], arithmetic mean, arithmetic standard deviation [SD], minimum [min], median, and maximum [max]) for all variables except tmax, which were summarized using n, min, median, and max. […]"}, "[4]": {"conditions": "20 mg film-coated tablet vs oral suspension"}, "[5]": {"conditions": "tablet + rabeprazole fasted vs AZD5055 fasted alone"}, "[6]": {"conditions": "tablet + rabeprazole fed vs AZD5055 fasted alone"}, "[7]": {"conditions": "tablet with rabeprazole, fed vs fasted"}}, "note": "Like-named read-outs stand apart in the source and are kept apart here."}
{"compound": "Cc1cc(-c2nccc3c2ccn3CC(=O)Nc2ccc(-c3cnccn3)cn2)ccn1", "note": "[AZD5055, 2-[4-(2-methyl-4-pyridyl)pyrrolo[3,2-c]pyridin-1-yl]-N-(5-pyrazin-2-yl-2-pyridyl)acetamide]", "values": [{"measurement": "pulmonary fibrosis", "setting": "[1]", "result": "reduced pulmonary fibrosis"}, {"measurement": "inhibition of the intracellular enzyme porcupine (PORCN)", "setting": "porcupine (PORCN)", "result": "potent, and selective inhibitor"}, {"measurement": "pulmonary fibrosis", "setting": "[2]; rat bleomycin in vivo study (Bunyard 2019)", "result": "reduced pulmonary fibrosis"}, {"measurement": "bleomycin-mediated fibrosis in the lungs", "setting": "[2]; rats, preliminary studies (Bunyard 2019)", "result": "reduces bleomycin-mediated fibrosis in the lungs of rats"}, {"measurement": "reduction in Cmax, tablet vs oral suspension", "setting": "[3]; [4]", "result": "approximately 35%"}, {"measurement": "total systemic exposure (AUCinf and AUClast), tablet vs oral suspension", "setting": "[3]; [4]", "result": "comparable"}, {"measurement": "Cmax relative to IV dose", "setting": "[3]; film-coated tablet, percent of the IV dose", "result": "approximately 21%"}, {"measurement": "bioavailability", "setting": "[3]; read-out: absolute bioavailability based on AUCinf", "result": "~66", "unit": "%"}, {"measurement": "bioavailability", "setting": "[3]; read-out: absolute bioavailability based on AUClast", "result": "~64", "unit": "%"}, {"measurement": "change in total systemic exposure (AUCinf and AUClast) with rabeprazole, fasted", "setting": "[3]; [5]", "result": "no change in total systemic exposure"}, {"measurement": "reduction in Cmax with rabeprazole, fasted", "setting": "[3]; [5]", "result": 32, "unit": "%"}, {"measurement": "change in total systemic exposure (AUCinf and AUClast) with rabeprazole, fed", "setting": "[3]; [6]", "result": "no change in total systemic exposure"}, {"measurement": "reduction in Cmax with rabeprazole, fed", "setting": "[3]; [6]", "result": 20, "unit": "%"}, {"measurement": "food effect on total systemic exposure with rabeprazole", "setting": "[3]; [7]", "result": "food did not impact total systemic exposure"}, {"measurement": "increase in Cmax by food with rabeprazole", "setting": "[3]; [7]", "result": "approximately 17%"}]}
